Laboratory results reported in article PMC2694832, “Pharmacokinetics, tissue distribution and mass balance of radiolabeled dihydroartemisinin in male rats” (Malaria Journal, 2009).

Experiment: Tissue distribution of [^14C] DHA
Type: in vivo, rats
Settings: for Distribution of radioactivity / % of total AUC / Half-lives of radioactivity / Tissue AUC of radioactivity / % total recovery: male rats i.v. 3 mg/20 μCi/kg; for % total recovery: all measured tissues
Method: Rats treated with a single [^14C] DHA dose of 3 mg/20 μCi/kg intravenously (5 rats per group) were anesthaetized by isofluorane and euthanized via cardiac puncture at 1, 6, 24, 48, 72, 96, and 192 hours, post-dosing. Blood, liver, brain, eyes, adrenals, muscle, lungs, heart, liver, kidneys, spleen, stomach, small intestine, large intestine, perirenal fat and bone marrow samples were removed from each animal by gross dissection. The gastrointestinal tract (GI) was separated into the stomach (oesophagus and stomach), small intestine, and large intestine. Contents were procured from each GI segment. After flushing with saline, these and other tissues were stored. Tissues were rinsed gently, but thoroughly with water to remove remaining traces of blood before storage. Dissecting instruments were also washed between tissue procurements to avoid cross-contamination.
For most of the tissues 20% (w/w) aqueous homogenates of the tissue were prepared. Aqueous homogenates of the faecal and GI content samples were also prepared. Metabolism cages were washed with a solution of 2% Count-off® and the volume was measured. Radioactivity in the plasma samples and in aliquots (approx. 0.02–1.0 ml) of urine and cage washings was determined. The blood cells (primarily erythrocytes), perirenal fat (approx. 0.2 g), bone marrow samples (approx. 0.1 ml), and approximately 300-μl aliquots of the homogenates of faeces, liver, kidneys, heart, brain, stomach and carcass were solubilized with SolvableTM tissue solubilizer (Perkin-Elmer Life and Analytical Sciences, Boston, MA). The homogenates of faeces, stomach content, and intestinal contents were extracted with 50% methanol for 24 hours. Aliquots of blood and pooled urine samples from selected intervals were also analysed for DHA content directly.
Total radioactivity in the collected tissue samples were quantified in duplicate. Weighed tissue aliquots (~0.2 g) were digested overnight in 2 ml of Solvable® tissue solubilizer (Perkin-Elmer Life and Analytical Sciences, Boston, MA) at 50°C. Coloured samples were decolourized by adding a maximum of 0.2 ml of 30% H2O2 for 30–60 minutes. Scintillation cocktail (Hyonic Fluor; Perkin-Elmer Boston. Massachusetts, USA) was then added and radioactivity determined in a Perkin-Elmer Tri-Carb 3100 TR scintillation spectrophotometer (Packard Instrument Co., Downers Grove, Illinois, USA). Faeces and intestinal contents were thoroughly homogenized before taking aliquots. Plasma was also analysed using the HPLC-ECD system to measure the concentration of unchanged DHA, as described by Li et al.

- Distribution of radioactivity (Lungs, 24 hr): 398.52 ng equivalents/tissue gram
- Distribution of radioactivity (Lungs, 48 hr): 305.34 ng equivalents/tissue gram
- Distribution of radioactivity (Lungs, 72 hr): 303.10 ng equivalents/tissue gram
- Distribution of radioactivity (Lungs, 96 hr): 236.70 ng equivalents/tissue gram
- Distribution of radioactivity (Lungs, 192 hr): 221.64 ng equivalents/tissue gram
- % of total AUC (Lungs): 2.03%
- Half-lives of radioactivity (Lungs): 86.19 ± 18.00 h
- Tissue AUC of radioactivity (Lungs): 85,916 ng·hr/g
- Tissue AUC of radioactivity (Lungs, listed as [^14C]-dihydroartemisinin): 85916 ± 12999 ng·h/g
- % of total AUC (Muscle): 0.86%
- Half-lives of radioactivity (Muscle): 64.45 ± 13.54 h
- Tissue AUC of radioactivity (Muscle): 36371 ± 6994 ng·h/g
- Distribution of radioactivity (Plasma, 1 hr): 591.34 ng equivalents/tissue gram
- Distribution of radioactivity (Plasma, 6 hr): 540.83 ng equivalents/tissue gram
- Distribution of radioactivity (Plasma, 24 hr): 216.03 ng equivalents/tissue gram
- Distribution of radioactivity (Plasma, 48 hr): 93.02 ng equivalents/tissue gram
- % of total AUC (Plasma): 0.49%
- Tissue AUC of radioactivity (Plasma): 20750 ± 1031 ng·h/g
- Half-lives of radioactivity (Plasma, listed as [^14C]-dihydroartemisinin): 75.57 ± 7.34 h
- Distribution of radioactivity (SI Content, 1 hr): 46426.85 ng equivalents/tissue gram
- Distribution of radioactivity (SI Content, 6 hr): 11387.30 ng equivalents/tissue gram
- Distribution of radioactivity (SI Content, 24 hr): 2283.61 ng equivalents/tissue gram
- Distribution of radioactivity (SI Content, 48 hr): 633.61 ng equivalents/tissue gram
- Distribution of radioactivity (SI Content, 72 hr): 575.05 ng equivalents/tissue gram
- Distribution of radioactivity (SI Content, 96 hr): 176.57 ng equivalents/tissue gram
- Distribution of radioactivity (SI Content, 192 hr): 250.03 ng equivalents/tissue gram
- % of total AUC (SI Content): 35.25%
- Half-lives of radioactivity (SI Content): 28.73 ± 9.05 h
- Tissue AUC of radioactivity (SI Content): 1492988 ± 63053 ng·h/g
- Distribution of radioactivity (Small intestine (SI), 1 hr): 8155.95 ng equivalents/tissue gram
- Distribution of radioactivity (Small intestine (SI), 6 hr): 3014.58 ng equivalents/tissue gram
- Distribution of radioactivity (Small intestine (SI), 24 hr): 821.84 ng equivalents/tissue gram
- Distribution of radioactivity (Small intestine (SI), 48 hr): 335.42 ng equivalents/tissue gram
- Distribution of radioactivity (Small intestine (SI), 72 hr): 389.72 ng equivalents/tissue gram
- Distribution of radioactivity (Small intestine (SI), 96 hr): 235.61 ng equivalents/tissue gram
- Distribution of radioactivity (Small intestine (SI), 192 hr): 304.12 ng equivalents/tissue gram
- % of total AUC (Small intestine (SI)): 3.10%
- Half-lives of radioactivity (Small intestine (SI)): 49.99 ± 34.89 h
- Tissue AUC of radioactivity (Small intestine (SI)): 131,264 ng·hr/g
- Tissue AUC of radioactivity (Small intestine (SI), listed as [^14C]-dihydroartemisinin): 131264 ± 24631 ng·h/g
- Distribution of radioactivity (Spleen, 1 hr): 4,387 ng equivalents/tissue gram
- Distribution of radioactivity (Spleen, 1 hr, listed as [^14C]-dihydroartemisinin): 4387.40 ng equivalents/tissue gram
- Distribution of radioactivity (Spleen, 6 hr): 3,685 ng equivalents/tissue gram
- Distribution of radioactivity (Spleen, 6 hr, listed as [^14C]-dihydroartemisinin): 3684.97 ng equivalents/tissue gram
- Distribution of radioactivity (Spleen, 24 hr): 3,061 ng equivalents/tissue gram
- Distribution of radioactivity (Spleen, 24 hr, listed as [^14C]-dihydroartemisinin): 3061.40 ng equivalents/tissue gram
- Distribution of radioactivity (Spleen, 48 hr): 4,216 ng equivalents/tissue gram
- Distribution of radioactivity (Spleen, 48 hr, listed as [^14C]-dihydroartemisinin): 4216.03 ng equivalents/tissue gram
- Distribution of radioactivity (Spleen, 72 hr): 4446.65 ng equivalents/tissue gram
- Distribution of radioactivity (Spleen, 96 hr): 4464.57 ng equivalents/tissue gram
- Distribution of radioactivity (Spleen, 192 hr): 5,170 ng equivalents/tissue gram
- Distribution of radioactivity (Spleen, 192 hr, listed as [^14C]-dihydroartemisinin): 5170.22 ng equivalents/tissue gram
- % of total AUC (Spleen): 14.58%
- Half-lives of radioactivity (Spleen): 114.02 ± 57.67 h
- Tissue AUC of radioactivity (Spleen): 617,495 ng·hr/g
- Tissue AUC of radioactivity (Spleen, listed as [^14C]-dihydroartemisinin): 617495 ± 410768 ng·h/g
- Distribution of radioactivity (Stomach Content, 1 hr): 36.03 ng equivalents/tissue gram
- Distribution of radioactivity (Stomach Content, 6 hr): 6289.79 ng equivalents/tissue gram
- Distribution of radioactivity (Stomach Content, 24 hr): 22.45 ng equivalents/tissue gram
- Distribution of radioactivity (Stomach Content, 48 hr): 98.12 ng equivalents/tissue gram
- Distribution of radioactivity (Stomach Content, 72 hr): 18.69 ng equivalents/tissue gram
- Distribution of radioactivity (Stomach Content, 96 hr): 11.76 ng equivalents/tissue gram
- Distribution of radioactivity (Stomach Content, 192 hr): 343.37 ng equivalents/tissue gram
- % of total AUC (Stomach Content): 0.53%
- Half-lives of radioactivity (Stomach Content): 16.75 ± 16.30 h
- Tissue AUC of radioactivity (Stomach Content): 22362 ± 98089 ng·h/g
- Distribution of radioactivity (Stomach, 1 hr): 1366.22 ng equivalents/tissue gram
- Distribution of radioactivity (Stomach, 6 hr): 932.33 ng equivalents/tissue gram
- Distribution of radioactivity (Stomach, 24 hr): 464.21 ng equivalents/tissue gram
- Distribution of radioactivity (Stomach, 48 hr): 342.30 ng equivalents/tissue gram
- Distribution of radioactivity (Stomach, 72 hr): 337.48 ng equivalents/tissue gram
- Distribution of radioactivity (Stomach, 96 hr): 229.69 ng equivalents/tissue gram
- Distribution of radioactivity (Stomach, 192 hr): 218.27 ng equivalents/tissue gram
- % of total AUC (Stomach): 1.94%
- Half-lives of radioactivity (Stomach): 72.58 ± 12.98 h
- Tissue AUC of radioactivity (Stomach): 82125 ± 13428 ng·h/g
- Distribution of radioactivity (Testis, 1 hr): 624.14 ng equivalents/tissue gram
- Distribution of radioactivity (Testis, 6 hr): 513.53 ng equivalents/tissue gram
- Distribution of radioactivity (Testis, 24 hr): 176.47 ng equivalents/tissue gram
- Distribution of radioactivity (Testis, 48 hr): 155.78 ng equivalents/tissue gram
- Distribution of radioactivity (Testis, 72 hr): 151.29 ng equivalents/tissue gram
- Distribution of radioactivity (Testis, 96 hr): 123.54 ng equivalents/tissue gram
- Distribution of radioactivity (Testis, 192 hr): 141.04 ng equivalents/tissue gram
- Tissue AUC of radioactivity (Testis): 48249 ± 6078 ng·h/g
- Half-lives of radioactivity (Testis, listed as [^14C]-dihydroartemisinin): 86.24 ± 40.68 h
- Half-lives of radioactivity (Total Amounts line): 69.03 ± 22.13 h
- Tissue AUC of radioactivity (Total Amounts line): 4234952.00 ng·h/g
- % total recovery (1 hr): 34.57%
- % total recovery (6 hr): 34.10%
- % total recovery (24 hr): 8.51%
- % total recovery (48 hr): 6.50%
- % total recovery (72 hr): 6.28%
- % total recovery (96 hr): 4.51%
- % total recovery (192 hr): ~5.53%
- radioactivity in whole blood higher than in plasma (throughout the period measured, rats i.v. 3 mg/20 μCi/kg): 1.8–4.6 fold
- total radioactivity found in the content of small intestine (within the first hour after i.v. dosing, rats): 53–86%
SMILES: C[C@@H]1CC[C@H]2[C@@H]([14CH3])C(O)O[C@@H]3O[C@@]4(C)CC[C@@H]1[C@]32OO4 (stereo partly drawn) [[^14C] DHA, [16-^14C] DHA]
